Measured values from patent US20040127395A1 (priority 2002, published 2004).
pIC50, pKi: −log10 of the molar value. Values belong to the compound of their own block, whether it stands above or below them.

Experiments:
[1] = target: human histamine H4 receptor (Homo sapiens, UniProt Q9H3N8)
human eosinophils = assay: Histamine-induced eosinophil shape change (GAFS); format: cell-based; conditions: for effect on histamine-induced eosinophil shape change / Fold Change: antagonist 10 μM; for pIC50: Eosinophil, human eosinophils, read-out: IC50 for inhibition of histamine-induced eosinophil shape change; for Fold Change: eosinophil shape change
Experimental: Human granulocytes were isolated from human blood by a Ficoll gradient. The red blood cells were lysed with 5-10× Qiagen lysis buffer at room temperature for 5-7 min. Granulocytes were harvested and washed once with FACS buffer. The cells were resuspended at a density of 2×10^6 cells/mL in reaction buffer. […] Ten minutes later, the cells were transferred to ice and fixed with 250 μL of ice-cold fixative buffer (2% formaldehyde) for 1 min.

[2] = test system: mouse bone marrow-derived mast cells; assay: Histamine-induced mast cell chemotaxis in vitro (transwell); format: cell-based
Experimental: Mast cells were differentiated from bone marrow derived from BALB/c or C57bl/6j mice. Mice were sacrificed by asphyxiation under 95% CO2 and femurs were removed. Bone marrow was aseptically isolated from the femurs. The cells (5×10^5/mL) were cultured at 37° C. with 5% CO2 in culture medium consisting of RPMI with 10% FCS, 0.1 mM non-essential amino acids, 50 μg/mL penicillin/streptomycin and 20% conditioned WEHI-3 medium. Conditioned WEHI-3 medium was prepared from WEHI-3 cells (ATCC), which were cultured in Iscoves Dulbeccos medium with 10% FCS, 4 mM L-glutamine, 1.5 g/L sodium carbonate, 0.05 μM beta-mercaptoethanol and 50 μg/mL penicillin/streptomycin. The filtered supernatant was used as the conditioned WEHI-3 medium. After 16 h in culture, the bone marrow cells were transferred to a new flask. The medium was refreshed once per week. After four weeks, the cells were tested by flow cytometry for IgE receptor and CD117 (c-kit) expression. Mast cells were incubated with anti-DNP IgE (ICN Pharmaceuticals, Costa Mesa, Calif.) or vehicle for 30 min, followed by FITC labeled anti-IgE (Pharmingen) or FITC labeled CD117 (Pharmingen) for 30 min on ice. The cultured mast cells consisted of a homogeneous population which was >99% IgE receptor positive and >99% CD117 positive. Mast cells of four to eight weeks culture time were used for experiments.
Transwells (Costar, Cambridge, Mass.) of a pore size of […] were coated with 100 μL of 100 ng/mL human fibronectin (Sigma) for 2 h at room temperature. […] Mast cells (2×10^5/well) were added to the top chamber. The plates were incubated for 3 h at 37° C. Transwells were removed and the number of cells in the bottom chamber was counted for 60 sec using a flow cytometer.

[3] = test system: mast cells in the mouse trachea; assay: Histamine-induced accumulation of mast cells in the mouse trachea in vivo
[4] = test system: ovalbumin-sensitized mice; assay: Ovalbumin-induced lung inflammation model, cell counts in BAL fluid; format: in vivo, mouse; conditions: for maximum reduction in the number of eosinophils: BAL fluid
[5] = test system: ovalbumin-sensitized mice; assay: Airway hyper-responsiveness to methacholine in ovalbumin-sensitized mice (whole body plethysmography); format: in vivo, mouse; conditions: any of the first three doses, FIG. 7
Experimental: Mice (n=8 per group) were sensitized by intraperitoneal injection of ovalbumin/alum on Days 0 and 14. On each of Days 21 through 24, mice were pretreated for 15 min with vehicle or with (5-chloro-1H-benzoimidazol-2-yl)-(4-methyl-piperazin-1-yl)-methanone prior to a 20 min challenge with PBS or ovalbumin.
In one experiment, (5-chloro-1H-benzoimidazol-2-yl)-(4-methyl-piperazin-1-yl)-methanone was administered p.o. at 5, 20, or 50 mg/kg. In a second experiment, (5-chloro-1H-benzoimidazol-2-yl)-(4-methyl-piperazin-1-yl)-methanone was administered p.o. at 0.5, 2, or 5 mg/kg.
Airway hyper-responsiveness in ovalbumin-sensitized animals was monitored in conscious mice by whole body plethysmography (Buxco). Mice (n=8 per group) were treated as described above for the cell measurements.

[6] = p.o., all doses of 5 mg/kg and greater, FIG. 5
[7] = p.o., highest dose tested (50 mg/kg)

pKi [1]: 8.10
SMILES: CN1CCN(C(=O)c2cc3cc(Br)ccc3[nH]2)CC1 [(5-Bromo-1H-indol-2-yl)-(4-methyl-piperazin-1-yl)-methanone]

SMILES: CN(C)CCOC(c1ccccc1)c1ccccc1 [diphenhydramine]
effect on histamine-induced eosinophil shape change (human eosinophils): did not alter

SMILES: NCCc1c[nH]cn1 [Histamine, reference compound]
migrated mast cells in the lower chamber ([2]; histamine in lower chamber (1.25-20 μM), FIG. 1): dose-dependent increase in migrated mast cells
migration of mast cells in the trachea ([3]; 0.1 M histamine aerosol, 20 min on 2 consecutive days): induces a migration of mast cells into the sub-epithelial space
shape change in eosinophils (human eosinophils; histamine as stimulus): induces a dose-dependent shape change

pIC50 (human eosinophils): 6.57
SMILES: CN1CCN(C(=O)c2cc3cc(Cl)ccc3[nH]2)CC1 [(5-Chloro-1H-indol-2-yl)-(4-methyl-piperazin-1-yl)-methanone]
histamine-induced migration of mast cells into the sub-epithelial space ([3]; 20 mg/kg subcutaneous, 15 min prior to each histamine aerosol, FIG. 4): blocked
number of eosinophils in BAL fluid ([4]; s.c., 60 and 100 mg/kg, FIG. 6): significantly reduced
total cell number in BAL fluid ([4]; s.c., 60 and 100 mg/kg, FIG. 6): significantly reduced
maximum reduction in the number of eosinophils ([4]; s.c.): 50%
number of lymphocytes in BAL fluid ([4]; s.c., same doses that provided reduction in eosinophils): significantly reduced

SMILES: CN1CCN(C(=O)c2nc3cc(Cl)ccc3[nH]2)CC1 [(5-Chloro-1H-benzoimidazol-2-yl)-(4-methyl-piperazin-1-yl)-methanone]
inhibition at 1 µM ([2]; Mus musculus, Mast cell): 84%
inhibition at 10 µM ([2]; Mus musculus, Mast cell): 97%
airway hyper-responsiveness to methacholine (Penh) [5]: reduced
macrophages in BAL fluid ([4]; p.o., 5 mg/kg, second experiment): reduction
maximum reduction in the number of eosinophils ([4]; p.o.): 50%
number of eosinophils in BAL fluid [4, 6]: significantly reduced
total cell number in BAL fluid [4, 6]: significantly reduced
number of macrophages in BAL fluid [4, 7]: reduction
number of neutrophils in BAL fluid [4, 7]: increase
number of lymphocytes in BAL fluid ([4]; p.o., same doses which provided maximum reduction in eosinophils): significantly reduced

SMILES: S=C(NC1CCCCC1)N1CCC(c2cnc[nH]2)CC1 [Thioperamide]
pIC50 (human eosinophils): 5.82

SMILES: CNC(=C[N+](=O)[O-])NCCSCc1ccc(CN(C)C)o1 [ranatidine]
effect on histamine-induced eosinophil shape change (human eosinophils): did not alter
Fold Change (human eosinophils; histamine 0 μM): 1.00
Fold Change (human eosinophils; histamine 0.01 μM): 1.04
Fold Change (human eosinophils; histamine 0.1 μM): 1.21
Fold Change (human eosinophils; histamine 1 μM): 1.49
Fold Change (human eosinophils; histamine 10 μM): 1.64
